Assay results reported in patent US20260072027A1, “Peptides And Method” (Queen Mary University of London, priority 2022, published 2026).
Where no end group is shown, it is not given here. [ ]: non-standard residue; d: D form. Dopa = N[C@@H](Cc1ccc(O)c(O)c1)C(=O)O; Cya = N[C@@H](CS(=O)(=O)O)C(=O)O

Key:
serum IgG autoantibodies = assay: ELISA for autoantibody detection: serum antibody binding to native and oxPTM insulin peptides; parameters: species or system human; details: for % binders, Healthy controls / Mean ± SEM (absorbance, OD), Healthy controls / % binders, Type 1 diabetes: Study cohort 1; for % binders, Type 1 diabetes: cut-off = mean of healthy controls to Nt-INSP plus 3 SEM; for Mean ± SEM (absorbance, OD), Type 1 diabetes: Study cohort 1 sera; for Antibody reactivity of serum samples (in words): ELISA
Method: ELISA for autoantibody detection. The ELISA analysis of Nt-INS and oxPTM-INS autoantibodies was performed as previously described [18](detailed in ESM methods, ELISA assay for antibody detection).
Statistical analyses. Statistical analyses were performed using Prism Software 9.0 (GraphPad, San Diego, CA, USA). Cut-off points of positivity (binders) in the antibody ELISA for each peptide were defined by the mean of optical absorbance (O.D) of healthy controls to the corresponding Nt-INSP plus three times the standard error of the mean (SEM). Specificity and sensitivity were evaluated by receiver operating characteristic (ROC) curve analysis. Area under the curve (AUC) is reported as absolute value and was tested for equality according to DeLong et al. Differences in antibody levels and T-cell stimulation indices (SI) between groups were tested by the One way ANOVA or Student's t-tests as appropriate. Correlation analyses were tested by Pearson or Spearman's test, as appropriate. Categorical analyses were performed by Chi-square or McNemar's tests, as appropriate. For each set of experiments, p values were adjusted for multiple comparison using the Holm-Sidak's test. Hierarchical cluster and Principal Component Analysis (PCA) was done using Clustvis software (https://biit.cs.ut.ee/clustvis/) and Prism Software 9.0, respectively.
Antibody reactivity of type 1 diabetes serum against the candidate oxPTM-INSP. Identified peptide candidates were synthesised and exposed to either HOCl or ^●OH to generate oxPTM-INSPs that were first assessed by TOF-MS/ES+TIC to confirm modification (FIG. 17). Antibody response against native INSPs (Nt-INSPs) and oxPTM-INSPs was evaluated by ELISA using sera from Study cohort 1.
ESM Methods ELISA assay for antibody detection. The ELISA analysis of native (Nt-INS) and modified insulin (oxPTM-INS) was performed as previously described. Briefly, the ELISA plate was coated overnight at 4° C. with 100 μl per well of modified or native insulin in 0.05 M carbonate/bicarbonate buffer pH 9.6 at 10 μg/ml. The next day, the plates were washed 3 times with 0.1% Tween PBS, followed by blocking for 2 hours at room temperature with 200 μl per well of 5% BSA in 0.1% Tween PBS. After washing, 100 μl of 1:200-diluted serum samples in 5% BSA-0.1% Tween PBS were added for additional 2 hours incubation. ELISA plates were then washed 3 times with 0.1% Tween PBS followed by probing with anti-human IgG horse radish peroxidase conjugated (HRP, Sigma) at 1:1,000 dilution in 5% BSA-0.1% Tween PBS for another 1.5 hours incubation. The ELISA plates were washed, and 100 μg/ml TMB substrate in 0.1M sodium acetate pH 6.0 plus 2 μl/10 ml of H2O2, were added. Subsequently, the reaction was stopped with 20% v/v sulphuric acid. The optical density (O.D.) was measured at 450 nm using a GENios plate reader and Magellan software (TECAN, Dorset, UK).

CD4+ T-cells (PBMCs) = assay: In vitro peptide stimulation and T-cell proliferation assay, CD4+; type: cell-based, human
Source text: (§1) In vitro peptide stimulation and T-cell proliferation assay. Peripheral blood mononuclear cells (PBMCs) were freshly isolated from type 1 diabetes and healthy individuals using Ficoll-Hypaque density gradient centrifugation. PBMCs were labelled with the fluorescent dye CellTrace Violet (Invitrogen, Thermo Fisher Scientific) and cultured (2×10^5 cells/well) in round-bottom 96-well plates (Falcon, Becton Dickinson) with RPMI-1640 medium (Gibco, Thermo Fisher Scientific) supplemented with 5% autologous plasma in the presence or not of insulin peptides (20 μg/ml); PPD (10 μg/ml) and anti-CD3 (0.1 μg/ml; clone OKT3) were used as positive control. Two scrambled peptides: […] (SEQ ID NO: 17), […] (SEQ ID NO: 18), and the Exendin 9-39 fragment were used as negative controls. After 7 days, PBMCs were stained with PE-Cy7 anti-CD8 (clone RPA-T8, BD Pharmingen) and FITC anti-CD3 (clone UCHT1, BD Pharmingen). Samples were analysed by using a FACSCanto II (BD Bioscience) to evaluate T-cell proliferation measured as CellTrace Violet dilution. Cytofluorimetric analyses were performed using FlowJo Software (FlowJo, LLC). The results were given as stimulation index (SI), calculated as percentage of stimulated T-cell subset proliferation/percentage of unstimulated T-cell subset proliferation. Assay for detection of peptide specific T cells subsets was done as previously described (detailed in ESM methods, Assay for detection of peptide specific T cells)
(§2) T-cell stimulation with oxPTM-INSPs. To evaluate the immune cell response against the oxPTM-INSPs, we performed CD4+ and CD8+ T cells proliferation experiments using freshly isolated PBMCs (Study cohort 2, Table 1). Response was calculated as stimulatory index (SI) over unstimulated T-cells.

CD8+ T-cells (PBMCs) = assay: In vitro peptide stimulation and T-cell proliferation assay, CD8+; type: cell-based, human
Source text: as §1, §2

| Substance | CD4+ T-cell response, subjects with SI > 1 (%) (CD4+ T-cells (PBMCs); Controls (N = 11)) | CD4+ T-cell response, subjects with SI > 3 (%) (CD4+ T-cells (PBMCs); Controls (N = 11)) | CD4+ T-cell response, subjects with SI > 5 (%) (CD4+ T-cells (PBMCs); Controls (N = 11)) | CD4+ T-cell response, subjects with SI > 10 (%) (CD4+ T-cells (PBMCs); Controls (N = 11)) | CD4+ T-cell response, subjects with SI > 1 (%) (CD4+ T-cells (PBMCs); Type 1 diabetes (N = 18)) | CD4+ T-cell response, subjects with SI > 3 (%) (CD4+ T-cells (PBMCs); Type 1 diabetes (N = 18)) | CD4+ T-cell response, subjects with SI > 5 (%) (CD4+ T-cells (PBMCs); Type 1 diabetes (N = 18)) | CD4+ T-cell response, subjects with SI > 10 (%) (CD4+ T-cells (PBMCs); Type 1 diabetes (N = 18)) | CD8+ T-cell response, subjects with SI > 1 (%) (CD8+ T-cells (PBMCs); Controls (N = 11)) | CD8+ T-cell response, subjects with SI > 3 (%) (CD8+ T-cells (PBMCs); Controls (N = 11)) | CD8+ T-cell response, subjects with SI > 5 (%) (CD8+ T-cells (PBMCs); Controls (N = 11)) | CD8+ T-cell response, subjects with SI > 10 (%) (CD8+ T-cells (PBMCs); Controls (N = 11)) | CD8+ T-cell response, subjects with SI > 1 (%) (CD8+ T-cells (PBMCs); Type 1 diabetes (N = 18)) | CD8+ T-cell response, subjects with SI > 3 (%) (CD8+ T-cells (PBMCs); Type 1 diabetes (N = 18)) | CD8+ T-cell response, subjects with SI > 5 (%) (CD8+ T-cells (PBMCs); Type 1 diabetes (N = 18)) | CD8+ T-cell response, subjects with SI > 10 (%) (CD8+ T-cells (PBMCs); Type 1 diabetes (N = 18)) | also measured |
| --- | --- | --- | --- | --- | --- | --- | --- | --- | --- | --- | --- | --- | --- | --- | --- | --- | --- |
| INSP-6 oxPTM-•OH: INSP-6 peptide oxidised in house by hydroxyl radical (ERGFFYTPKT; not fully specified (N-terminus); also: oxidised by hydroxyl radical, modified residues not defined) |  |  |  |  |  |  |  |  |  |  |  |  |  |  |  |  | % binders, Healthy controls (serum IgG autoantibodies; in house modifications): 12%; Mean ± SEM (absorbance, OD), Healthy controls (serum IgG autoantibodies; in house modifications): 0.280 ± 0.020; % binders, Type 1 diabetes (serum IgG autoantibodies; in house modifications): 83%; Mean ± SEM (absorbance, OD), Type 1 diabetes (serum IgG autoantibodies; in house modifications): 0.461 ± 0.013; Mean ± SEM (absorbance, OD), Type 1 diabetes (serum IgG autoantibodies; in house modifications, listed as ●OH-modified oxPTM-INSP-6): 0.461±0.013 |
| YLVCGERGFF [INSP-1, insulin B:16-25 peptide] |  |  |  |  |  |  |  |  |  |  |  |  |  |  |  |  | Antibody reactivity of serum samples (in words) (serum IgG autoantibodies): No significant reactivity |
| ERGYYYTPKTR (Ac-ERGYYYTPKTR) [oxPTM-INSP-6 version with a C-terminal arginine] | (63.6%) | (27.3%) | (0.0%) | (0.0%) | (72.2%) | (38.9%) | (15.8%) | (16.7%) | (18.2%) | (9.10%) | (9.1%) | (9.1%) | (55.6%) | (16.7%) | (16.7%) | (16.7%) | % binders, Healthy controls (serum IgG autoantibodies; in silico modifications): 48%; Mean ± SEM (absorbance, OD), Healthy controls (serum IgG autoantibodies; in silico modifications): 0.423 ± 0.039; % binders, Type 1 diabetes (serum IgG autoantibodies; in silico modifications): 88%; Mean ± SEM (absorbance, OD), Type 1 diabetes (serum IgG autoantibodies; in silico modifications): 0.697 ± 0.058 |
| LVEALYLVCGER [INSP-2, insulin B:11-22 peptide] |  |  |  |  |  |  |  |  |  |  |  |  |  |  |  |  | Antibody reactivity of serum samples (in words) (serum IgG autoantibodies): No significant reactivity |
| ERGFFYTPKTR (Ac-ERGFFYTPKTR) [INSP-6 with C-terminal arginine] | (36.4%) | (0.0%) | (0.0%) | (0.0%) | (55.6%) | (27.8%) | (21.1%) | (11.1%) | (27.3%) | (0.0%) | (0.0%) | (0.0%) | (44.4%) | (16.7%) | (16.7%) | (16.7%) |  |
| SL-DOPA-QLEN-DOPA-Cysteate-N (SL[Dopa]QLEN[Dopa][Cya]N) [in silico designed oxPTM-INSP-3 derivative] | (27.3%) | (0.0%) | (0.0%) | (0.0%) | (66.7%) | (5.6%) | (0.0%) | (0.0%) | (18.2%) | (9.10%) | (0.0%) | (0.0%) | (33.3%) | (16.7%) | (5.5%) | (5.6%) | % binders, Healthy controls (serum IgG autoantibodies; in silico modifications): 30%; Mean ± SEM (absorbance, OD), Healthy controls (serum IgG autoantibodies; in silico modifications): 0.169 ± 0.008; % binders, Type 1 diabetes (serum IgG autoantibodies; in silico modifications): 57%; Mean ± SEM (absorbance, OD), Type 1 diabetes (serum IgG autoantibodies; in silico modifications): 0.256 ± 0.018 |
| INSP-3 oxPTM-•OH: INSP-3 peptide oxidised in house by hydroxyl radical (SLYQLENYCN; not fully specified (N-terminus); also: oxidised by hydroxyl radical, modified residues not defined) |  |  |  |  |  |  |  |  |  |  |  |  |  |  |  |  | % binders, Healthy controls (serum IgG autoantibodies; in house modifications): 86%; Mean ± SEM (absorbance, OD), Healthy controls (serum IgG autoantibodies; in house modifications): 0.617 ± 0.042; % binders, Type 1 diabetes (serum IgG autoantibodies; in house modifications): 86%; Mean ± SEM (absorbance, OD), Type 1 diabetes (serum IgG autoantibodies; in house modifications): 0.667 ± 0.044; Mean ± SEM (absorbance, OD), Type 1 diabetes (serum IgG autoantibodies; in house modifications, listed as ●OH-modified oxPTM-INSP-3): 0.667±0.044 |
